Data published in patent US11660054B2, “Medical diagnostic and treatment systems and their methods of use” (Biogen MA Inc., priority 2016, dated 2023).

Tested on: β-amyloid neuritic plaque
Experiment: Radiometer cap detection of head radiation signals after IV amyloid tracer, concurrent PET
Type: in vivo, human
Procedure: Tests were conducted using a series of radiometers positioned around subjects heads and a standard PET camera using the amyloid tracer ^18F-fluorbetapir in subjects with probable Alzheimer's disease (AD subjects) and healthy control volunteers (HC). ^18F-fluorbetapir is a radioactive diagnostic agent for positron emission tomography (PET) imaging of the brain to estimate β-amyloid neuritic plaque density in adult patients with cognitive impairment who are being evaluated for AD. PET imaging targeting β-amyloid neuritic plaque deposition has already begun playing a role in identifying individuals very early in the course of AD and monitoring progression of the disease over the course of the treatment with investigational therapeutics.
During testing, ^18F-fluorbetpir was administered intravenously as a bolus injection followed by a saline flush. […] Each subject received a single injection of the radioligand with a dose of no more than 10 mCi in a maximum volume of 10 mL.
The device included a cap fitted with up to 5 detectors at various 10-20 EEG positions which was placed on the subject's head. The subjects were asked to avoid any movements of the head and to remain immobilized as much as possible. Additional detectors were secured to one ankle and the chin to obtain an indirect measure of the activity in the blood, and to monitor activity in the head respectively. […] Detector specific count rates and total counts were measured continuously for up to 3 hours. The count rate and total counts were compared in the AD subjects and HC subjects to extrapolate qualitative and quantitative pattern differences. […]
For processing purposes, detected radiation signals were decay corrected to the time of injection. The counts were recorded in 4 second intervals, which were then median filtered using a 2 minute window. […]
To quantify this, a constrained bi-exponential model was fit to the 10-65 minute period of each of the detectors, as well as the sum of the brain signals (excluding the chin, ankle and tip top detectors). […]

CNc1ccc(/C=C/c2ccc(OCCOCCOCCF)nc2)cc1 [^18F-fluorbetapir]
ankle detector signal after injection (ankle detector, all subjects, IV bolus): steadily climbed | alpha phase of bi-exponential fit, healthy versus AD subjects (bi-exponential fit of 10-65 minute period, alpha phase limited to 5-30 min half-life): faster alpha phase | initial washout of signal in healthy subjects versus AD subjects (head detectors, healthy subjects): faster initial washout
